Reference: patent US10765638B2, “Particle formulation with polycation complex” (Yale University, priority 2017, dated 2020)

Tests used:
SKMG3-CD8-EGFR cells [1] = assay: Cell cycle distribution by flow cytometry; type: cell-based, human; conditions: 10 μM NGI-1, 4 Gy
Experimental: Cell cycle distribution was determined following treatment with vehicle, radiation and/or 10 uM NGI-1. Cells were trypsinized and centrifuged, washed once with ice-cold PBS, fixed with ice-cold 70% ethanol and stored overnight at −20° C. After washing twice with PBS, they were incubated for 30 minutes at room temperature in 200 μL of Guava Cell Cycle Reagent (Guava Technologies). Cytofluorometric acquisitions were performed on a LSRII cytometer (BD Biosciences). First-line analysis was performed with FlowJo software, upon gating of the events characterized by normal forward and side scatter parameters and discrimination of doublets in a FSC-A vs. FSC-H bivariate plot. Approximately 50,000 cells were analyzed per experiment.
(§1) The CD8 cDNA was a gift from Paula Kavathas (Yale University). The CD8-EGFR was constructed according to a strategy that generated a constitutively active IGF-1R (24). The extracellular domain of CD8 was PCR amplified with a 5′ XbaI and 3′ SalI restriction site and cloned in-frame with the intracellular kinase domain of EGFR using the pDCB5-EGFR plasmid. SKMG3-CD8-EGFR cells were generated by Lipofectamine (Life Technologies) transfection of the plasmid followed by selection with 500 μg/ml G418. Expression of CD8-EGFR was validated by western blot analysis of the wild type and CD8-EGFR.

SKMG3 cells = assay: Radiation clonogenic survival assay; type: cell-based, human
Experimental: (§2) Radiation (XRT) doses of either 0, 2, 4, or 6 Gy were delivered with a Precision X-ray 320-kV orthovoltage unit at a dose rate of 2 Gy/45 seconds (PXI X-Ray Systems). Twenty-four hours following XRT cells were washed, trypsinized, and re-plated in triplicate wells to determine clonogenic survival. […] Growth rates were determined by CellTiter 96 Non-Radioactive Cell Proliferation Assay (Promega; Madison, Wis., USA) according to the manufacturer's directions. For each experiment one thousand cells were seeded in triplicate wells in 96-wells plates. The following day, cell cultures were treated with NGI-1 (1 μM), Temozolomide (TMZ, 10 μM), Etoposide (VP-16, 0.1 μM) or combinations for 5 days. Absorbance at 540 nm was measured using the spectrophotometric reading (BioTek Synergy 2; Winooski, Vt. USA).

SKMG3-CD8-EGFR cells [2] = assay: Phospho-γH2AX foci formation; type: cell-based, human
Experimental: To determine histone H2AX phosphorylation (γH2AX), cells were cultured on glass cover slips and pre-treated with either vehicle or NGI-1 for 48 hours followed by radiation treatment. Samples were fixed with 4% neutral-buffered formaldehyde, washed (0.1% triton in PBS for 30 minutes) and incubated for 1 hour with protein-blocking solution (PBS containing 10% normal goat-horse serum; Sigma-Aldrich, Saint Louis, Mich., US). Next, the slides were incubated with primary anti-phospho-histone γH2AX S139 (1:500, Millipore-Upstate, Billerica, Mass., US) followed by incubation with secondary antibody Alexa Fluor 555-conjugated goat anti-mouse IgG (1:750, Molecular probes/Invitrogen, Carlsbad, Calif., US), for 1 hour at room temperature. Nuclei were stained using DAPI containing vectashield mounting solution (Vector Labs). Confocal cellular images were captured with an inverted Zeiss LSM 510 Pascal laser confocal microscope (C. Zeiss, Jenna, Germany), using a 63/1.4 plan-apochromat objective. Five randomly selected fields s per slide were analyzed. Cells were counted using the ImageJ program, public domain Java image processing software.
The CD8 cDNA was a gift from Paula Kavathas (Yale University). The CD8-EGFR was constructed according to a strategy that generated a constitutively active IGF-1R (24). […]

PC9-GR2 = assay: Cell cycle distribution by flow cytometry; type: cell-based; conditions: NGI-1 for 24 h, printed 80% vs 60%
Experimental: (§3) For the assessment of cell cycle distribution, 1×10^6 cells were collected, washed once with ice-cold PBS and fixed in ice-cold 70% ethanol overnight at −20° C. Thereafter, cells were washed twice with PBS and incubated for 30 min at room temperature in 200 μL of Guava Cell Cycle Reagent (Guava Technologies). Cytofluorometric acquisitions were performed on a LSRII cytometer (BD Biosciences). First-line analysis was performed with Flow Jo software, upon gating of the events characterized by normal forward and side scatter parameters and discrimination of doublets in a FSC-A vs. FSC-H bivariate plot. Approximately 30,000 cells were analyzed per experiment, and the mean value was obtained from 3 independent assays.

H1975-OR cells = assay: Cell cycle distribution by flow cytometry; type: cell-based; conditions: NGI-1 for 24 h, printed 45% vs 75%, higher value taken as NGI-1
Experimental: as §3

HCC-827-GR cells = assay: Cell cycle distribution by flow cytometry; type: cell-based; conditions: NGI-1 for 24 h, printed 75% vs 45%
Experimental: as §3

PC9-GR1 = assay: Cell cycle distribution by flow cytometry; type: cell-based; conditions: NGI-1 for 24 h, printed 60% vs 40%
Experimental: as §3

H1975 = assay: Cell cycle distribution by flow cytometry; type: cell-based; conditions: NGI-1 for 24 h, printed 40% vs 60%, higher value taken as NGI-1
Experimental: as §3

[3] = test system: non-transformed cell lines, primary human dermal fibroblasts, and neural progenitor cells; conditions: Lopez-Sambrooks 2016, Hafirassou 2017, Puschnik 2017; cited from earlier work
SKMG3-CD8-EGFR cells [4] = assay: Radiation clonogenic survival assay; type: cell-based, human; conditions: 10 μM NGI-1
Experimental: as §2, §1

PC9-GR cells = assay: Apoptosis by Annexin V flow cytometry; type: cell-based; conditions: NGI-1 treatment alone
Experimental: (§4) Briefly, 1×10^6 cells/sample were collected, washed in PBS, pelleted, and resuspended in incubation buffer (10 mm HEPES/NaOH, pH 7.4, 140 mm NaCl, 2.5 mm CaCl2) containing 1% annexin V and 1% 7-Amino-actinomycin D or propidium iodide, to identify dead cells. […] First-line analysis was performed with Flow Jo software. Approximately 50,000 cells were analyzed per experiment, and the mean value was obtained from 3 independent assays.

parental PC9 cells = assay: Apoptosis by Annexin V flow cytometry; type: cell-based; conditions: NGI-1 10 μM, 48 h
Experimental: as §4

D54 cells = assay: Radiation clonogenic survival assay; type: cell-based
Experimental: as §2

U251 cells = assay: Radiation clonogenic survival assay; type: cell-based; conditions: 10 μM NGI-1
Experimental: as §2

T98G cells = assay: Radiation clonogenic survival assay; type: cell-based; conditions: 10 μM NGI-1
Experimental: as §2

HCC827-GR cells = assay: Apoptosis by Annexin V flow cytometry; type: cell-based; conditions: NGI-1 treatment alone
Experimental: First-line analysis was performed with Flow Jo software. Approximately 50,000 cells were analyzed per experiment, and the mean value was obtained from 3 independent assays.

## Cc1cnc(NC(=O)c2cc(S(=O)(=O)N(C)C)ccc2N2CCCC2)s1 [NGI-1, 5-(dimethylsulfamoyl)-N-(5-methyl-1,3-thiazol-2-yl)-2-(pyrrolidin-1-yl)benzamide]
SKMG3-CD8-EGFR cells [1]
  G1 cell cycle arrest caused by NGI-1, alone and after exposure to radiation: eliminated the G1 cell cycle arrest
SKMG3 cells; 10 μM NGI-1
  dose enhancement factor (DEF) at a surviving fraction of 0.4: 1.2
SKMG3 cells; 10 μM NGI-1 48 hours before radiation, 87% without NGI-1
  survival fraction at 2 Gy (SF2Gy): 77%
SKMG3-CD8-EGFR cells [2]
  phospho-γH2AX foci formation: no effect
PC9-GR2
  cells in G1 (G1 arrest): 80%
H1975-OR cells
  cells in G1 (G1 arrest): 75%
HCC-827-GR cells
  cells in G1 (G1 arrest): 75%
PC9-GR1
  cells in G1 (G1 arrest): 60%
H1975
  cells in G1 (G1 arrest): 60%
[3]
  toxicity: no significant toxicity
SKMG3-CD8-EGFR cells [4]
  radiosensitization by NGI-1 (radiation clonogenic survival): prevented radiosensitization
PC9-GR cells
  induction of apoptosis: no pro-apoptotic effect
Parental PC9 cells
  induction of apoptosis: does not induce apoptosis
D54 cells; 10 μM NGI-1
  dose enhancement factor (DEF) at a surviving fraction of 0.4: 1.3
D54 cells; 10 μM NGI-1 48 hours before radiation, 69% without NGI-1
  survival fraction at 2 Gy (SF2Gy): 51%
U251 cells
  effect on SF2Gy: unaffected
T98G cells
  effect on SF2Gy: unaffected
HCC827-GR cells
  induction of apoptosis: not sufficient to induce apoptosis
